# In patent US20070202047A1, “Polyamine-substituted ligands for use as contrast agents” (priority 2006, published 2007):
# Values joined by “and” are separate entries in the source; they are usually repeats but may differ in a detail not shown here. Identical values can stand only once.
# Key:
# B16 melanoma cells = experiment: Intracellular uptake of gadolinium complexes (ICP-MS); assay type: cell-based, mouse; conditions: 24-h incubation; for intracellular uptake of gadolinium complex: B16 melanoma cells, 10 μM
# Method: (§1) Cell culture. B16 melanoma cells (mouse) and MH3924A Morris hepatoma cells (rat) were obtained from the German Cancer Research Center (DKFZ) tumor bank and grown at 37° C. as stock cultures in RPMI 1640 supplemented with 10% fetal calf serum and 1% glutamine as standard medium under a 5% CO2 atmosphere (all components: Pan Biotech GmbH, Aidenbach, Germany). For contrast agent uptake studies 10^6 cells were inoculated into 25 cm^2 culture flasks (BD Biosciences, Bedford, USA) and grown for 24 h in 10 mL of the standard culture medium. Cells were then incubated for an additional 24 h (1 h for temperature dependence studies) with fresh medium containing 0, 1, 2.5, 5 or 10 μM of the selected gadolinium complex (three replicate flasks for each incubation). Afterwards the medium was removed, cells were trypsinated, washed twice, resuspended in culture medium and counted (typical yields: 3.5-6 million cells). For comparison 2.5×10^5 human melanocytes (Promo Cell, Heidelberg, Germany) were incubated for 24 h with melanocyte growth medium (Promo Cell, Heidelberg, Germany) containing 0, 1, 2.5, 5 or 10 μM of the selected gadolinium complex (two replicate flasks for each incubation). The work up procedure was as described above typically yielding 2.5×10^5 cells. Cultured human hepatocytes (Cytonet GmbH, Weinheim, Germany) embedded in a collagen matrix in a 12 well microtiter plate, with 6×10^5 viable cells per well were incubated for 24 h in hepatocyte growth medium (Cytonet GmbH, Weinheim, Germany) containing the same concentration series of selected gadolinium complexes. Afterwards the medium was removed, cells were separated using collagenase (Roche Diagnostics, Mannheim, Germany). After digestion the cells were washed twice with PBS, resuspended in culture medium and counted (typical yields: 6×10^5 cells per tube). The intracellular gadolinium content was determined by ICP-MS as described below.
# (§2) ICP-MS. Samples containing the above mentioned number of harvested cells were digested with 50% concentrated HNO3 (Superselect; Merck, Darmstadt, Germany) under microwave heating with a Mars 5 apparatus (CEM GmbH, Kamp-Lintfort, Germany). To each sample 100 μL of an aqueous solution of rhodium chloride (1 μg/mL) were added so that Rh-103 could be used as an internal quantification standard. Gd-160 measurements were performed with the ICP-MS instrument mentioned above. The gadolinium concentrations were determined using standard curves created prior to cell analyses. For each uptake incubation condition triplicate cell samples were analyzed, and Gd content for each sample was recorded as the mean of two MS determinations.
# (§3) Intracellular Uptake of Gadolinium Complexes. B16 melanoma and MH3924A hepatoma cells as well as human melanocytes and hepatocytes were incubated for 24 h in the presence of the gadolinium complexes shown in FIG. 1, using concentrations in the range of 1-10 μM. Incubations with the unsubstituted [Gd(DTPA)(H2O)]^2−complex (Magnevist®) served as controls. Following cell harvest and hydrolysis, inductively coupled plasma mass spectrometry (ICP-MS) with direct detection of gadolinium was used to quantitate complex uptake (triplicate cultures for each incubation).
# (§4) Cell Uptake Studies. A493 (human kidney), B16 melanoma cells (mouse), HeLa (human cervix), MCF-7 (human breats), MH3924A (Morris hepatoma) cells (rat) and 3T3 NIH (mouse fibroblasts) were obtained from the DKFZ tumor cell collection. 3×10^6 cells of each cell type were grown for 24 hours in culture flasks. Afterwards they were incubated for 1 hour in 10 mL culture media containing 0, 10, 50 and 100 μM of Gd-2.2. Gd-3.2 or Gd-4.2. Afterwards the medium was removed, the cells were trypsinated, washed twice, resuspended in culture medium and counted. The gadolinium uptake was determined in triplicate. […] cells were incubated with 0, 1, 2.5, 5 and 10 μM of the Gd-1.2. and Gd-5.2. for 24 h. […]
# [1] = test system: MH3924A Morris hepatoma cells; experiment: as above; assay type: cell-based, rat; conditions: MH3924A cells; for intracellular uptake of gadolinium complex: 24-h incubation
# Method: as §1, §2, §3, §4
# [2] = Biodistribution and excretion in tumor-bearing ACI rats; assay type: in vivo, rat; conditions: for gadolinium obtained in the faeces / gadolinium obtained in the urine: 24 h after injecting
# Method: Animal models. For in vivo tumor studies 2×10^6 MH3924A tumor cells were injected subcutaneously into the right thigh of male ACI rats (Charles River, Sulzfeld, Germany) weighing 220 to 260 g. All animal experiments were performed in compliance with the German Animal Protection Laws (Permission 35-9185.81/G-7-03, Reg.-Praesidium, Karlsruhe, Germany).
# Biodistribution and excretion data. At 14 days after tumor inoculation, when tumors had reached a diameter of ca. 5-6 mm, the biodistribution experiments were initiated. Each animal (210-250 g) was given an intravenous tail-vein injection of […] Magnevist® (Schering, Berlin, Germany) or […] of Gd-5.1. or Gd-6.1. 1 h and 24 hs post-injection (p.i.), the animals were weighed, sacrificed by cervical dislocation and dissected. Organs or tissues were blotted dry and weighed. Samples containing 100-500 mg of the tumor or organs were digested with concentrated HNO3 (Superselect; Merck, Darmstadt, Germany) and H2O2 under microwave heating with a Mars 5 apparatus (CEM GmbH, Kamp-Lintfort, Germany). To each sample 100 μL of an aqueous solution of rhodium chloride (1 μg/mL) were added so that Rh-103 could be used as an internal quantification standard. Gd-160 measurements were performed with the ICP-MS instrument mentioned above. The gadolinium concentrations were determined using standard curves created prior to tissue analyses. The results were expressed as % ID/g tissue. Urine and faeces were gathered in order to measure the excreted amount of Gd(III).
# [3] = 1 h post i.v. injection, one ACI rat, scaled to Gd dose of 100 μmol/kg
# [4] = 24 h post i.v. injection, one ACI rat
# [5] = 24 h post i.v. injection, one ACI rat, scaled to Gd dose of 100 μmol/kg
SMILES,intracellular uptake of gadolinium complex (B16 melanoma cells) [fmol/cell],intracellular uptake of gadolinium complex ([1]; 10 μM),"Gd concentration, Blood [2, 3] [nmol/g]","Gd concentration, Bone (femur) [2, 3] [nmol/g]","Gd concentration, Bone Marrow (femur) [2, 3] [nmol/g]","Gd concentration, Kidney (+urine) [2, 3] [nmol/g]","Gd concentration, Liver [2, 3] [nmol/g]","Gd concentration, Lung [2, 3] [nmol/g]","Gd concentration, Small Intestine [2, 3] [nmol/g]","Gd concentration, Tumor (MH3924A) [2, 3] [nmol/g]",gadolinium obtained in the faeces ([2]; ACI rat),gadolinium obtained in the urine ([2]; ACI rat) [%],"Excretion as % of total dose [2, 4] [%]","Gd concentration, Blood [2, 5] [nmol/g]","Gd concentration, Bone (femur) [2, 5] [nmol/g]","Gd concentration, Bone Marrow (femur) [2, 5] [nmol/g]","Gd concentration, Faeces [2, 5] [nmol/g]","Gd concentration, Kidney (+urine) [2, 5] [nmol/g]","Gd concentration, Liver [2, 5] [nmol/g]","Gd concentration, Lung [2, 5] [nmol/g]",also measured
CCN(CC)CCNC(=O)CN(CCN(CCN(CC(=O)[O-])CC(=O)N(CCN)CCN)CC(=O)[O-])CC(=O)[O-].[Gd+3] [Gd-3.1],0.082±0.004,0.175±0.0013 fmol/cell and 0.175 fmol/cell,–,–,–,–,–,–,–,–,–,–,–,–,–,–,–,–,–,–,fold increase in intracellular accumulation versus complex of ligand 2.1 (B16 melanoma cells; cell line not stated): 2.87
NCCN(CCN)C(=O)CN(CCN(CCN(CC(=O)[O-])CC(=O)N(CCN)CCN)CC(=O)[O-])CC(=O)[O-].[Gd+3] [Gd-5.1],0.027±0.002,0.053±0.005 fmol/cell,7.8,2.2,0.8,120.3,4.2,12.7,18.9,5.5,about 1%,98,98,0.1,0.9,1.7,16.6,40.9,2.0,24.2,"Gd concentration, Brain [2, 3]: 0.5 nmol/g; Gd concentration, Muscle (femur) [2, 3]: 1.6 nmol/g; Gd concentration, Spleen [2, 3]: 4.7 nmol/g; Gd concentration, Urine (cumulative) [2, 3]: 2116.7 nmol/g; Gd concentration, Small Intestine [2, 5]: 0.4 nmol/g; Gd concentration, Tumor (MH3924A) [2, 5]: 0.6 nmol/g; Gd concentration, Urine (cumulative) [2, 5]: 537.2 nmol/g; agent still present in the tumor ([2]; 24 h post injection, MH3924A tumor, ACI rat): about 0.020 fmol/cell; preferential tissue binding (biodistribution) ([2]; ACI rat bearing MH3924A tumor, i.v.): binds preferentially to lung tissue and parts of the excretory system e.g. small intestine and kidneys; observed factor of decrease in uptake at 4° C. vs. 37° C. ([1]; 1 h (FIG. 3A)): ~6.5; uptake over 1 h at 4° C. ([1]; 1 h, 4° C., 10 μM): 0.00064±0.00004 fmol/cell; uptake over 1 h at 37° C. ([1]; 1 h, 37° C., 10 μM): 0.008±0.00041 fmol/cell"
NCCCCN(CCCN)C(=O)CN(CCN(CCN(CC(=O)[O-])CC(=O)N(CCCN)CCCCN)CC(=O)[O-])CC(=O)[O-].[Gd+3] [Gd-6.1],–,0.108 fmol/cell,4.8,3.3,0.9,141.6,6.6,20.2,4.0,7.2,about 1%,98,94,0.1,1.0,2.3,41.4,62.3,5.5,5.9,"Gd concentration, Small Intestine [2, 5]: 0.1 nmol/g; Gd concentration, Tumor (MH3924A) [2, 5]: 0.8 nmol/g; Gd concentration, Urine (cumulative) [2, 5]: 650.9 nmol/g"
